Experimental findings from PubChem BioAssay AID1645866 (Buhrlage Lab, Dana-Farber Cancer Institute and Novartis …, 2021) are described below.

Structures are written as SMILES. The source made the active and inactive calls.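 The calls were made as follows: active = in confirmatory dose-response testing, peak deubiquitinase inhibition of 30% or more; inactive = the rest.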

Ubiquitin carboxyl-terminal hydrolase 28 (Homo sapiens), sequence (Q96RU2 whole entry, looked up): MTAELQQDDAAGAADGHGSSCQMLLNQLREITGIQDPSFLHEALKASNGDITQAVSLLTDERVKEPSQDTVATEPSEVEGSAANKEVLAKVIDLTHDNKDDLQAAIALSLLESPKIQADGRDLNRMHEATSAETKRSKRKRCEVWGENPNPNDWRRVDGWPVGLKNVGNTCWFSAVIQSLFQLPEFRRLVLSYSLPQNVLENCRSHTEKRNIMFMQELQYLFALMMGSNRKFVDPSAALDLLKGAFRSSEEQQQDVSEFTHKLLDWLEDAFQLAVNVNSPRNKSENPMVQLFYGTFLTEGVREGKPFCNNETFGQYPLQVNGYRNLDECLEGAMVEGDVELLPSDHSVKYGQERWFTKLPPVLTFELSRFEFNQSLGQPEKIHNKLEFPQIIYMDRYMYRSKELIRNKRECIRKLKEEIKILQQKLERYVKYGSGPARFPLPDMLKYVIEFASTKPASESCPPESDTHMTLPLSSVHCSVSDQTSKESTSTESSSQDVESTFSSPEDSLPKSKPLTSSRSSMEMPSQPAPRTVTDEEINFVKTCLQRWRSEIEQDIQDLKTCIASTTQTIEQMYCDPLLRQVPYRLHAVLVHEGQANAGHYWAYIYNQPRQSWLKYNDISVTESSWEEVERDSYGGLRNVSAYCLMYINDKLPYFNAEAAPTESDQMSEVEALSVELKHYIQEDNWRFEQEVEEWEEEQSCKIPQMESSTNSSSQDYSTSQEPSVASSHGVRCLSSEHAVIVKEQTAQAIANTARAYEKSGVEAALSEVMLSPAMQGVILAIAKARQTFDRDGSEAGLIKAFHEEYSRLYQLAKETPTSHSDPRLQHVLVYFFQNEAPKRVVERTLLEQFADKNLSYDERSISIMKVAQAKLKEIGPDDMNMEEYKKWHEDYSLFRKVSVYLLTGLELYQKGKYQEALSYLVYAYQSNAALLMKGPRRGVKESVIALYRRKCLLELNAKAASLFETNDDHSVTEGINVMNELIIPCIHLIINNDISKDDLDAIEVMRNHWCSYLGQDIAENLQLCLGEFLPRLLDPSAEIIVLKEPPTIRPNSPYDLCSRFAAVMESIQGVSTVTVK

This experiment concerns the target Ubiquitin carboxyl-terminal hydrolase 28 (Homo sapiens) (UniProt Q96RU2). As to the kind of experiment: Ubiquitin-specific peptidase 28 DUB inhibitors, biochemical concentration-dependence assay, validation of primary screening hits (AID 1645866). Particulars: purified USP28, ubiquitin-rhodamine fluorescence, 30 min.
In the case of `COc1cc(Cn2cnc3c([nH]c4ccc(Br)cc43)c2=O)cc(OC)c1`, the IC50 was 2.76 µM.
With `CCc1nc(-c2cc(C(=O)N3CCOCC3)c3ccccn23)cs1` the figure was > 50 µM (inactive); with `COc1ccc(NC(=O)COc2cc(CSc3ccccc3)ncc2OC)cc1`, > 50 µM (inactive); with `O=C(CC1C(=O)N(Cc2cccnc2)c2nc3ccccc3n21)Nc1cccc2ccccc12` (stereo not given), > 50 µM (inactive).
With `COc1ccc2c(C)c(CC(=O)N3CCC[C@H]3C(=O)O)c(=O)oc2c1C` the figure was 44.6 µM; with `CC(=O)c1cccc(NC(=O)c2ccc(N3CCCCC3)nn2)c1`, 32.4 µM; with `Cc1sc2ccn(C)c(=O)c2c1C(=O)NC1CCCC1`, 4.28 µM.
For `O=C(NCc1ccccc1Cl)c1ccc2cn[nH]c2c1`, the IC50 is 10.1 µM.
In the case of `N#Cc1cc(C(=O)c2ccc(Cl)cc2)c[nH]1` it was 41.9 µM; in that of `Cc1cc(=O)oc2cc(OCC(=O)Nc3cc(Cl)ccc3N3CCOCC3)ccc12`, 41.2 µM.
With `Cc1c(C(=O)NCc2cccc(Br)c2)oc2c1-c1[nH]ncc1CC2` the figure was 29.5 µM; with `O=C(Nc1cccc2ccccc12)C1CCCN(S(=O)(=O)Cc2ccccc2)C1` (stereo not given), 18.8 µM.
With `CCn1cnc2ccc(C(=O)NC3CC3)cc2c1=O` the figure was 20.2 µM.
As for `COc1ccccc1-n1nnc(C(=O)Nc2ccc(Oc3ccccc3)cc2)c1C`, the half-inhibitory concentration (IC50) was 6.16 µM.
In the case of `COc1ccc(Cl)cc1NC(=O)Cn1c(=O)cc(C)c2c(C)nn(-c3ccccc3)c21` it was 5.44 µM; in that of `CCC1=C(c2ccc(C)cc2)S(=O)(=O)NC1=NCC(=O)NCc1ccccc1F`, 33.2 µM.
With `O=S1(=O)CCN(Cc2c(F)cccc2F)c2c(F)nc(N3CCOCC3)c(F)c21` the figure was > 50 µM (inactive); with `Cc1cc(C#N)c2c(C)ccc(C(C)C)cc1-2`, 21.4 µM.
In the case of `CCOCCCn1c(SCC(=O)Nc2ccccc2C(F)(F)F)nc2ccccc2c1=O` it was 17 µM; in that of `O=C1c2c(O)cccc2C2(Oc3cccc4cccc(c34)O2)C2OC12` (stereo not given), 20.1 µM; in that of `C/C1=C\CCC(C)C(O)CC(O)C(C)C(O)CCC(C)C(O)CC2(O)OC(CC(OC(=O)CC(=O)O)CC(O)CC(O)CC(O)C(C)C(O)/C=C/C(C)C(C(C)CCCCCCCCN=C(N)N)OC1=O)CC(O)C2O` (stereo not given), 4.77 µM.
`Cc1cccc(-n2ccnc(SCC(=O)Nc3ccc(Cl)cc3F)c2=O)c1`: the IC50 is 3.91 µM.
As to `CCC(C)c1ccc(O[C@@H]2O[C@@H]3COC(c4ccccc4)O[C@H]3[C@H](O)[C@H]2NC(C)=O)cc1` (stereo not given in full), the IC50 was 20.2 µM.
With `COc1cc(C#N)c(NC(=NCc2ccc(F)cc2)SC)cc1OC` the figure was 22.5 µM.
With `COc1ccccc1C(=O)N1CCc2[nH]c3ccc(F)cc3c2C1` the figure was > 50 µM (inactive); with `COc1ccc2nc3c(cc2c1)c(=O)n(C)c1c3c(=O)n(-c2ccccc2)c(=O)n1-c1ccccc1`, > 50 µM (inactive); with `Cc1cc(C(=O)Nc2ccc3c(c2)OCCO3)no1`, 9.47 µM.
With `COc1ccccc1NC(=O)CNC(=O)c1nn(-c2ccc(OC)c(OC)c2)c(=O)c2ccccc12` the figure was 24.8 µM; with `COc1cc(/C=C/C(=O)OCC(=O)Nc2ccc([N+](=O)[O-])cc2OC)ccc1O`, 18.8 µM; with `Cc1nc(-c2ccccc2F)sc1C(=O)Nc1cccnc1`, 26.8 µM.
Regarding `O=C(Nc1cccc(C(F)(F)F)c1)N1CCCn2c(nc3ccccc32)C1`, the IC50 was 20.3 µM.
Regarding `CC1(C)CC2CC(C)(CN2Cc2c(O)ccc3ccccc23)C1` (stereo not given), the IC50 was > 50 µM (inactive).
Turning to `COc1ccccc1CNC(=O)CCCCn1c(=O)c2ccccc2n(Cc2ccccc2C#N)c1=O`, the IC50 is 13 µM.
With `O=C(NCCc1ccccn1)c1cn2ccnc(-c3ccc(F)cc3)c2n1` the figure was > 50 µM (inactive); with `Cc1sc2ncn3c(=O)n(CC(=O)Nc4ccc(F)c(Cl)c4)nc3c2c1C`, 3.14 µM; with `CCOc1ccc(NC(=O)Cn2cnc(S(=O)(=O)N3CCc4ccccc43)c2)cc1`, 27.6 µM.
Regarding `CN(C(=O)CSc1nnc(-c2cc3ccccc3n2C)o1)c1ccccc1`, the IC50 was > 50 µM (inactive).
With `COc1ccc(-c2cnnn2-c2ccc(NC(=O)c3c(F)cccc3F)cc2)cc1OC` the figure was > 50 µM (inactive); with `O=C(OC1CSc2nc3ccccc3n2C1)c1ccc([N+](=O)[O-])o1` (stereo not given), 33.2 µM.
In the case of `COc1ccc(CCNC(=O)c2noc3c2CCc2sccc2-3)cc1OC` it was 0.655 µM; in that of `Nc1c(C(=O)NCCc2ccccc2)nnn1-c1ccc(F)cc1`, 42.5 µM.
In the case of `CC1=C(c2ccc(F)cc2)S(=O)(=O)N=C1Nc1ccc(Cl)cc1` it was 28.1 µM.
For the molecule `Cc1ccc(C(=O)c2cn(CC(=O)Nc3ccccc3)c3ccc(C)cc3c2=O)cc1`, the IC50 is 6 µM.
For `CCCC(=O)Nc1nc2ccc(CCC(=O)NCc3ccc(F)cc3)cc2s1`, the IC50 was 25.8 µM.
With `Cc1ccc(C(=O)Nc2cc3c4c(c2)CC(=O)N4CCC3)cc1C` the figure was 6.26 µM; with `Cc1c(-c2nnc(-c3ccccn3)o2)nnn1-c1cccc(Cl)c1`, 25.6 µM; with `CC(=O)c1ccc(NC(=O)C2CCN(c3cncnc3N3CCCC3)CC2)cc1`, 0.674 µM.
For the molecule `COc1ccc(-c2cc(N3CCC(NC(=O)c4ccccc4)C3)n[nH]2)cc1` (stereo not given), the IC50 is 16 µM.
With `O=C(CSc1nc2cc(C(F)(F)F)ccc2s1)NCC(=O)c1ccccc1` the figure was 6.5 µM; with `CCOc1ccccc1NC(=O)Cn1c(=O)n(CCCC(=O)NCc2ccc(C)cc2)c(=O)c2sccc21`, 1.98 µM.
For the molecule `Cc1ccc(CNC(=O)Cn2cnc3c(cnn3-c3cccc(Cl)c3)c2=O)cc1`, the IC50 was 2.58 µM.
With `O=C(Nc1ccc(SCc2nnc(-c3ccccc3)o2)cc1)C1CC1` the figure was 8.42 µM.
With `COc1ccc(CC(=O)Nc2cccc(-c3nc4ncccc4o3)c2)cc1OC` the figure was > 50 µM (inactive).
With `N[C@@H](Cc1ccccc1)C(=O)N1CCC2(CC1)CN(C(=O)c1ccc(Cl)cc1)CCO2` the figure was > 50 µM (inactive).
Consider `COc1ccc(S(=O)(=O)N2CCc3ccccc32)cc1C(=O)Nc1ccc2[nH]c(=O)[nH]c2c1`, for which the IC50 was 9.13 µM.
In the case of `O=C1N(Cc2ccc(F)cc2)CCN1c1ccc(C(F)(F)F)cn1` it was 4.67 µM; in that of `O=C(Cc1noc2ccccc12)N1CCN(c2ccc([N+](=O)[O-])cc2)CC1`, > 50 µM (inactive); in that of `Cc1ccc(CSC2=NS(=O)(=O)c3ccccc3N2)cc1`, 16.2 µM.
In the case of `CC(C)NC(=O)Cn1ccn2nc(-c3ccc(Cl)cc3)cc2c1=O` it was 8.61 µM; in that of `COc1ccc(OCCn2c(C3CC(=O)N(c4cccc(C)c4)C3)nc3ccccc32)cc1` (stereo not given), 1.57 µM.
With `O=C(CCn1c(=O)c2sccc2n(CC(=O)OCc2ccccc2)c1=O)NCc1ccc2c(c1)OCO2` the figure was 18 µM; with `Cc1cc(C)c2sc(N(CCCn3ccnc3)C(=O)Cc3ccccc3)nc2c1`, 17.2 µM; with `CC(=O)c1ccc(NC(=O)/C(=C/c2ccco2)n2nnnc2-c2ccccc2)cc1`, 40.5 µM.
For the molecule `O=C(Cn1c(=O)n(Cc2ccc3c(c2)OCO3)c(=O)c2ncccc21)c1ccc(Cl)cc1`, the IC50 was 30.4 µM.
With `COc1ccccc1-c1ccc(SCC(=O)Nc2ccc3c(c2)OCCO3)nn1` the figure was 2.03 µM.
